Paper PMC6073568, “Efficient Lead Finding, Activity Enhancement and Preliminary Selectivity Control of Nuclear Receptor Ligands Bearing a Phenanthridinone Skeleton” (International Journal of Molecular Sciences, 2018)

Key:
RORγ = molecular target: T1, RORγ (Homo sapiens, UniProt P51449); details: reporter gene assay, HEK293; read-out: RORγ inverse agonistic activity (IC50); cited from earlier work
T1 construct: expressed in transfected cells; host or cells: HEK293
T1 sequence (P51449 1-518): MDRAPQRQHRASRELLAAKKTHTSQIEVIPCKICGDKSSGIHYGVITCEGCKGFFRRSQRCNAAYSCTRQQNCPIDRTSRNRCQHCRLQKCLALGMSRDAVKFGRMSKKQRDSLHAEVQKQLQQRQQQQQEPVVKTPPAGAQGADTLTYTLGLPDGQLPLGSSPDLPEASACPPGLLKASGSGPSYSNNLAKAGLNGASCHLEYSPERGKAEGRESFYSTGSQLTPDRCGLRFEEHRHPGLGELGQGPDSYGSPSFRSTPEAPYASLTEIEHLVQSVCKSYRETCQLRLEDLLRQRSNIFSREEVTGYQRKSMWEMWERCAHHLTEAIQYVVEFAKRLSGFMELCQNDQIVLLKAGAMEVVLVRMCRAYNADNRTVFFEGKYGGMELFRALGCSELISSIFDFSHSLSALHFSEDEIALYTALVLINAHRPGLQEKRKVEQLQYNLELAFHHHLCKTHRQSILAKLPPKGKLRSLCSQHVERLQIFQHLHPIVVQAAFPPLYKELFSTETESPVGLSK

LXRβ = molecular target: T2, LXRβ (Homo sapiens, UniProt P55055); assay: LXRβ reporter gene assay in HEK293; format: cell-based; details: read-out: LXRβ antagonistic activity (IC50)
T2 construct: CMX-GAL4N-hLXRβ-LBD; expressed in transfected cells; host or cells: HEK293
T2 sequence (P55055 222-460 limits assumed): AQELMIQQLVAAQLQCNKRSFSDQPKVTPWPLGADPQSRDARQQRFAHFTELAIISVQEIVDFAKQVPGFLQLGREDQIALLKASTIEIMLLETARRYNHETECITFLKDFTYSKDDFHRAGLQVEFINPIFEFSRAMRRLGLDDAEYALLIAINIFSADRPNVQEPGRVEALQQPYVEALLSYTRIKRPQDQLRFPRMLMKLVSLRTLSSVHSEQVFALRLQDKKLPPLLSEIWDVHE

LXRα = molecular target: T3, LXRα (Homo sapiens, UniProt Q13133); assay: LXRα reporter gene assay in HEK293; format: cell-based; details: read-out: LXRα antagonistic activity (IC50)
T3 construct: CMX-GAL4N-hLXRα-LBD; expressed in transfected cells; host or cells: HEK293
T3 sequence (Q13133 209-447 limits assumed): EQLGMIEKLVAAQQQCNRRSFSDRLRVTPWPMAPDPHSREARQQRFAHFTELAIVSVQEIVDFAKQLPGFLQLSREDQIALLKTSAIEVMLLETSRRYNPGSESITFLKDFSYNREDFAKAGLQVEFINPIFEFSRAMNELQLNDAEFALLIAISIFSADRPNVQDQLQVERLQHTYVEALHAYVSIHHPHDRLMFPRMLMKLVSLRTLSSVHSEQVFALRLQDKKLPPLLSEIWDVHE

RORα = molecular target: T4, RORα (Homo sapiens, UniProt P35398); details: reporter gene assay, HEK293; read-out: RORα inverse agonistic activity (IC50); cited from earlier work
T4 construct: expressed in transfected cells; host or cells: HEK293
T4 sequence (P35398 1-523): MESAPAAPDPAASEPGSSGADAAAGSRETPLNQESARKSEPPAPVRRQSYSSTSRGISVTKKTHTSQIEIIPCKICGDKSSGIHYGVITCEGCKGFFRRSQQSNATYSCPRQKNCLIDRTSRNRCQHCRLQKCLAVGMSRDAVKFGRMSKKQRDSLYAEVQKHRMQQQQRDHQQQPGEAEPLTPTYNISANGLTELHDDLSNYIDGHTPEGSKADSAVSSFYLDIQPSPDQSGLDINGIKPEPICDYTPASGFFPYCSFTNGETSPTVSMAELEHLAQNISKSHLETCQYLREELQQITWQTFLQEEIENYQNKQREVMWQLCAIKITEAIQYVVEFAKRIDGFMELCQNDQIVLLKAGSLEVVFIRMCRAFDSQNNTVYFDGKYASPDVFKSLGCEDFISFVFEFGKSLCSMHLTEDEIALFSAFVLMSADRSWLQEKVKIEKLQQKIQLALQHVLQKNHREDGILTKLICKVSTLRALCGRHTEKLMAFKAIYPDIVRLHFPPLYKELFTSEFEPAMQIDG

AR = molecular target: T5, AR (Homo sapiens, UniProt P10275); assay: AR reporter gene assay in HEK293; format: cell-based; details: reporter gene assay, HEK293; agonist dihydrotestosterone 0.3 nM; read-out: AR antagonistic activity (IC50), AR reporter gene
T5 sequence (P10275 1-920): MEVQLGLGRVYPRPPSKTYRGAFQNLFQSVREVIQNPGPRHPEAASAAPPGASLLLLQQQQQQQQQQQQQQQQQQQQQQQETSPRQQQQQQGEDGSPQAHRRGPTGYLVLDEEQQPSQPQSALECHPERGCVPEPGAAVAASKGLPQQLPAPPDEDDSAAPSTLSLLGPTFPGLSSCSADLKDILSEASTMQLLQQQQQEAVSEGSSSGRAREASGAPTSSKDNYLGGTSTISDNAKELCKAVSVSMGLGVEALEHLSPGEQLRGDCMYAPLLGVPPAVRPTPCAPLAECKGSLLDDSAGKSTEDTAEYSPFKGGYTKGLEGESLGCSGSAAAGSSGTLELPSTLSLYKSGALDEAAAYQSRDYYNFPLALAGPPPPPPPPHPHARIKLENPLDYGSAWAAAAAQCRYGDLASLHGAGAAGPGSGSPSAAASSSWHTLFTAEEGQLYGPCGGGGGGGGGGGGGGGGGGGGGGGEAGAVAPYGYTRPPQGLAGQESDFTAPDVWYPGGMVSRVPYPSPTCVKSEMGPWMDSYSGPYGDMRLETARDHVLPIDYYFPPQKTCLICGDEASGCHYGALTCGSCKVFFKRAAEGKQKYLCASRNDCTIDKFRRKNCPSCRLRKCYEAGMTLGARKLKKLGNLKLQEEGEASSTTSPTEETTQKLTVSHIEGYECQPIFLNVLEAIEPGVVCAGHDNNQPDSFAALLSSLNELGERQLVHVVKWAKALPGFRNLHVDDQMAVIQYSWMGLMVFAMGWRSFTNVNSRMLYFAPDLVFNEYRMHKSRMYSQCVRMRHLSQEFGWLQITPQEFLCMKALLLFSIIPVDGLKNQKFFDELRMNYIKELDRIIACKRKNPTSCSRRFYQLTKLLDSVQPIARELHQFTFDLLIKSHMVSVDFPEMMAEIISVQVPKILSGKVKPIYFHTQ

SMILES	IC50 (RORγ)	IC50 (LXRβ)	IC50 (LXRα)	IC50 (RORα)	IC50 (AR)
O=c1[nH]c2ccc(C(O)(C(F)(F)F)C(F)(F)F)cc2c2cc(F)ccc12 [Compound 35]	5 µM	5.4 µM	6.4 µM	9.8 µM	0.92 µM
COc1cc(C(O)(C(F)(F)F)C(F)(F)F)cc2c1[nH]c(=O)c1ccccc12 [Compound 39]	9.6 µM	> 20 µM	> 20 µM	> 20 µM	> 20 µM
CCc1cc(C(O)(C(F)(F)F)C(F)(F)F)cc2c1[nH]c(=O)c1ccccc12 [Compound 41]	> 20 µM	> 20 µM	> 20 µM	> 20 µM	14 µM
CCCc1cc(C(O)(C(F)(F)F)C(F)(F)F)cc2c1[nH]c(=O)c1ccccc12 [Compound 42]	9.9 µM	20 µM	> 20 µM	> 20 µM	5.4 µM
